Earlier results in US20020187165A1, “Composition for female sexual arousal” (Joseph F. Long, priority 2001, published 2002).

Settings: following oral administration

time of peak plasma concentrations: 1 to 2 h
Structure (SMILES): Cn1cc([S+](C)[O-])c(=O)c2ccc(F)cc21 (stereo not shown) [flosequinan]
